Among the data in US7709473B2, “Substituted 2H-[1,2,4]triazolo[4,3-a]pyrazines as GSK-3 inhibitors” (Pfizer Inc., priority 2004, dated 2010) are IC50 values, retold here.

Usually IC50 stands for the concentration that gives 50% inhibition.

The target of this test is GSK-3 (Homo sapiens, UniProt P49841). Briefly: GSK-3 inhibition, cell-free 33P-ATP peptide substrate SPA assay. The test is classed as biochemical. The note with it: read-out: inhibitory activity against GSK-3, expressed as IC50. How it is done: The specific activities of the compounds of formula (I) in inhibiting GSK-3 can be determined in both cell-free and cell-based assays, both of which have been previously described in the relevant art. See, for example, U.S. Pat. Nos. 6,417,185 and 6,489,344, the disclosures of which are incorporated herein by reference in their entirety.
Chain of GSK-3 (P49841 whole entry): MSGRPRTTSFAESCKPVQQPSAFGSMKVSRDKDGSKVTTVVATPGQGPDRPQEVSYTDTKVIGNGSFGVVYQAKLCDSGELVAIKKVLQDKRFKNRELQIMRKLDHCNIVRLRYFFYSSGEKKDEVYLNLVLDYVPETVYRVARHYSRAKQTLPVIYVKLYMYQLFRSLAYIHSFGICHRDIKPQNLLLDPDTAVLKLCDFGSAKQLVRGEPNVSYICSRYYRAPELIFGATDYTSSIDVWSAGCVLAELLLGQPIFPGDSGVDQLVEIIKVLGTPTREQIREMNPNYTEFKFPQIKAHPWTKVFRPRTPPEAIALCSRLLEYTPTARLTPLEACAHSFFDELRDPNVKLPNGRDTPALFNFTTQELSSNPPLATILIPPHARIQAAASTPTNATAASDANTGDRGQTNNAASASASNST
A cell-free testing assay can be generally carried out by incubating GSK-3 with a peptide substrate, radiolabeled ATP (e.g., for example, γ^33P- or γ^32P-ATP, both of which are available from Amersham; Arlington Heights, Ill.), magnesium ions, and the compound to be assayed. […] The amount of γ^33P or γ^32P remaining in each well after washing is then quantified to determine the amount of radiolabeled phosphate incorporated into the peptide substrate. […]
Another example of a GSK-3 testing assay, similar to the one described hereinabove, is as follows: enzyme activities are assayed as the incorporation of ^33P from the gamma phosphate of ^33P-ATP (Amersham; Arlington Heights, Ill.; catalog #AH-9968) into biotinylated peptide substrate PKTP-KKAKKL. […] The final concentration of ATP is 0.5 μM (final specific radioactivity of 4 μCi/nmol), and the final concentration of substrate is 0.75 μM. […] Radioactivity associated with the beads is then quantified by standard scintillation counting. […]

`COc1ccc(OCCNc2nc(C(C)(C)C)cn3c(=O)[nH]nc23)cc1` [Example 218, 6-tert-Butyl-8-[2-(4-methoxy-phenoxy)-ethylamino]-2H-[1,2,4]triazolo[4,3-a]pyrazin-3-one]: the IC50 worked out at 4.84 nM.
